The source of these data is patent US10294202B2, “Pyrrolidinones as herbicides” (FMC Corporation, priority 2013, dated 2019).

One experiment has as its system sprangletop, Brdd. In words: Test F flood (paddy) test. It is filed as in vivo, Leptochloa fascicularis. The following applies: 21 d, scale 0-100. The method in brief:
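Visual injury ratings (0 no effect to 100 complete control) were taken 21 d after treatment against untreated controls. Compounds went directly into paddy water held 3 cm above soil, applied at the 2.0–2.5-leaf stage in sterilized Tama silt loam under a 30/27 °C, 16-h greenhouse regime.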

A further experiment concerns monochoria. Nature of the experiment: Test F flood (paddy) test. The following applies: 21 d, scale 0-100. It is filed as in vivo, Monochoria vaginalis. An excerpt: Three plastic pots (ca. 16-cm diameter) per rate were partially filled with sterilized Tama silt loam soil comprising a 35:50:15 ratio of sand, silt and clay and 2.6% organic matter. Separate plantings for each of the three pots were as follows. Seeds from the U.S. of monochoria (Monochoria vaginalis), sedge, umbrella (small-flower umbrella sedge, Cyperus difformis), bulrush, […] bulrush, Scirpus juncoides), and […] (purple […] coccinea), were planted into one 16-cm pot for each rate. Seeds from the U.S. of flatsedge, rice (rice flatsedge, Cyperus iria), sprangletop, Brdd. (bearded sprangletop, Leptochloa fascicularis), one stand of 9 or 10 water seeded rice seedlings (Rice, W.S. Jap, Oryza sativa cv. 'Japonica-[…]' or Rice, W.S. Ind, 'Indica'), and two stands of 3 or 4 seedlings of rice, transplanted (transplanted rice, Oryza sativa cv. 'Japonica-[…]') were planted into one 16-cm pot for each rate. Seeds from the U.S. of barnyardgrass (Echinochloa crus-galli), […] (common […], Alisma plantago-aquatica), and watergrass, late (late watergrass, Echinochloa oryzicola) were planted into one 16-cm pot for each rate. Plantings were sequential so that crop and weed species were at the 2.0 to 2.5-leaf stage at time of treatment. Potted plants were grown in a greenhouse with day/night temperature settings of 30/27° C., and supplemental balanced lighting was provided to maintain a 16-h photoperiod. Test pots were maintained in the greenhouse until test completion. At time of treatment, test pots were flooded to 3 cm above the soil surface, treated by application of test compounds directly to the paddy water, and then maintained at that water depth for the duration of the test. Effects of treatments on rice and weeds were visually evaluated by comparison to untreated controls after 21 d. Plant response ratings, summarized in Table F, are based on a scale of 0 to 100 where 0 is no effect and 100 is complete control. A dash (-) response means no test result.

In the next experiment the test system is bermudagrass. Nature of the experiment: Test C pre-/postemergence herbicide test. It is filed as in vivo, Cynodon dactylon. The text has this: Seeds of plant species selected from blackgrass (Alopecurus myosuroides), ryegrass, Italian (Italian ryegrass, Lolium multiflorum), wheat (winter wheat, Triticum aestivum), galium (catchweed bedstraw, Galium aparine), corn (Zea mays), crabgrass, large (large crabgrass, Digitaria sanguinalis), foxtail, giant (giant foxtail, Setaria faberii), johnsongrass (Sorghum halepense), lambsquarters (Chenopodium album), morningglory (Ipomoea coccinea), nutsedge, yellow (yellow nutsedge, Cyperus esculentus), pigweed (Amaranthus retroflexus), ragweed (common ragweed, Ambrosia elatior), soybean (Glycine max), barnyardgrass (Echinochloa crus-galli), oilseed rape (Brassica napus), waterhemp (common waterhemp, Amaranthus rudis), kochia (Kochia scoparia), oat, wild (wild oat, Avena fatua), surinam grass (Brachiaria decumbens), foxtail, green (green foxtail, Setaria viridis), goosegrass (Eleusine indica), bromegrass, downy (downy bromegrass, Bromus tectorum), nightshade (eastern black nightshade, Solanum ptycanthum), cocklebur (common cocklebur, Xanthium strumarium), cupgrass, woolly (woolly cupgrass, Eriochloa villosa), bermudagrass (Cynodon dactylon), sunflower, (common oilseed sunflower, Helianthus annuus), Russian thistle (Salsola kali) and velvetleaf (Abutilon theophrasti) were planted into a blend of loam soil and sand and treated preemergence with test chemicals formulated in a non-phytotoxic solvent mixture which included a surfactant. At the same time, plants selected from these crop and weed species and also barley (winter barley, Hordeum vulgare), […]), chickweed (common chickweed, Stellaria media), deadnettle (henbit deadnettle, Lamium amplexicaule), and canarygrass (littleseed canarygrass, Phalaris minor) were planted in pots containing Redi-Earth® planting medium (Scotts Company, 14111 Scottslawn Road, Marysville, Ohio 43041) comprising spaghnum peat moss, vermiculite, wetting agent and starter nutrients and treated with postemergence applications of test chemicals formulated in the same manner. Plants ranged in height from 2 to 18 cm (1- to 4-leaf stage) for postemergence treatments. Treated plants and controls were maintained in a greenhouse for 13 to 15 days, after which time all species were compared to controls and visually evaluated. Plant response ratings, summarized in Table C, are based on a scale of 0 to 100 where 0 is no effect and 100 is complete control. A dash (-) response means no test result.

The mark [1] stands for this setting: Preemergence, 62 g ai/ha, scale 0 to 100.
[2] abbreviates: Preemergence, 125 g ai/ha, scale 0 to 100 (0 no effect, 100 complete control).
Where [3] appears, read: Preemergence, 31 g ai/ha, scale 0 to 100 (0 no effect, 100 complete control).
The mark [4] stands for this setting: Preemergence, 250 g ai/ha, scale 0 to 100 (0 no effect, 100 complete control).
Setting [5] is: Postemergence, 31 g ai/ha, scale 0 (no effect) to 100 (complete control).
Where [6] appears, read: Postemergence, 62 g ai/ha, scale 0 to 100 (0 no effect, 100 complete control).
The mark [7] stands for this setting: Postemergence, 125 g ai/ha, scale 0 to 100 (0 no effect, 100 complete control).
The mark [8] stands for this setting: Postemergence, 250 g ai/ha, scale 0 to 100 (0 no effect, 100 complete control).

With `O=C1NCC(c2ccc(F)c(F)c2)C1C(=O)Nc1cccc(F)c1F` (racemic) [Compound 101], the “Plant response rating, Sprangletop, Brdd.” value in the experiment with sprangletop, Brdd. (64 g ai/ha) stood at 75; in the experiment with sprangletop, Brdd. (125 g ai/ha), 85; in the experiment with sprangletop, Brdd. (250 g ai/ha) it was 95; in the experiment with sprangletop, Brdd. (500 g ai/ha), 95. Also, the “Plant response rating, Monochoria” value in the experiment with monochoria (64 g ai/ha) was 75; in the experiment on monochoria (125 g ai/ha) it was 100; with monochoria (250 g ai/ha), 100; with monochoria (500 g ai/ha) it was 100.

`O=C1NCC(c2cccc(C(F)F)c2)C1C(=O)Nc1ccccc1F` (racemic) [Compound 210]: the “Plant response rating, Sprangletop, Brdd.” value is 100 with sprangletop, Brdd. (125 g ai/ha); 100 in the experiment on sprangletop, Brdd. (250 g ai/ha); 100 with sprangletop, Brdd. (500 g ai/ha). Besides, the “Plant response rating, Monochoria” value is 65 in the experiment on monochoria (125 g ai/ha), 85 in the experiment on monochoria (250 g ai/ha) and 100 with monochoria (500 g ai/ha).

In the case of `O=C1NCCC1C(=O)N(c1ccc(F)c(F)c1)c1ccccc1F` (stereo not drawn) [Compound 5, N-(3,4-difluorophenyl)-N-(2-fluorophenyl)-2-oxo-3-pyrrolidinecarboxamide], the “Plant response rating, Bermudagrass” value in the experiment on bermudagrass (setting [1]) was determined as 0; in the experiment on bermudagrass (setting [2]) it was 20; with bermudagrass (setting [4]), 45. Besides, the “Bermudagrass plant response rating” value with bermudagrass (setting [3]) was 0. Besides, the “Plant response rating, Sprangletop, Brdd.” value in the experiment on sprangletop, Brdd. (125 g ai/ha) is listed as 85; in the experiment on sprangletop, Brdd. (250 g ai/ha), 85; in the experiment with sprangletop, Brdd. (500 g ai/ha) it was 85; in the experiment on sprangletop, Brdd. (1000 g ai/ha), 85; in the experiment with sprangletop, Brdd. (2000 g ai/ha), 90. Also, the “Plant response rating, Monochoria” value in the experiment with monochoria (125 g ai/ha), in the experiment with monochoria (250 g ai/ha), in the experiment with monochoria (500 g ai/ha), with monochoria (1000 g ai/ha) and in the experiment on monochoria (2000 g ai/ha) was 75 in each case.

Regarding `O=C1NCC(c2cc(F)c(F)c(F)c2)C1C(=O)Nc1cccc(F)c1F` (stereo not drawn) [Compound 48], the “Plant response rating, Bermudagrass” value was 0 in the experiment with bermudagrass (Postemergence, 16 g ai/ha, scale 0 to 100 (0 no effect, 100 complete control)); 0 in the experiment on bermudagrass (setting [5]); 0 in the experiment with bermudagrass (setting [6]); 10 in the experiment with bermudagrass (setting [7]); 0 in the experiment with bermudagrass (setting [1]); 0 in the experiment with bermudagrass (setting [2]). Besides, the “Plant response rating, Bermudagrass” value with bermudagrass (Preemergence, 16 g ai/ha, scale 0 to 100) amounted to 0. Also, the “Bermudagrass plant response rating” value with bermudagrass (setting [3]) is reported as 0.

Regarding `O=C1NCC(c2cc(F)c(F)cc2F)C1C(=O)Nc1cccc(F)c1F` (stereo not drawn) [Compound 50], the “Plant response rating, Bermudagrass” value in the experiment with bermudagrass (setting [5]), in the experiment with bermudagrass (setting [6]), with bermudagrass (setting [7]) and with bermudagrass (setting [8]) was 0 each time.

For `O=C1NCC(c2ccc(Cl)c(F)c2)C1C(=O)Nc1cccc(F)c1F` (stereo not drawn) [Compound 52], the “Plant response rating, Bermudagrass” value was determined as 0 in the experiment on bermudagrass (setting [5]); 0 with bermudagrass (setting [6]); 0 with bermudagrass (setting [7]); 10 with bermudagrass (setting [8]); 40 in the experiment on bermudagrass (setting [1]); 40 in the experiment with bermudagrass (setting [2]). Further, the “Plant response rating, Bermudagrass” value in the experiment with bermudagrass (setting [4]) turned out to be 65. Also, the “Bermudagrass plant response rating” value in the experiment with bermudagrass (setting [3]) is reported as 0.

Turning to `O=C1NCC(c2ccc(F)c(Cl)c2)C1C(=O)Nc1ccccc1F` (stereo not drawn) [Compound 60], the “Plant response rating, Bermudagrass” value in the experiment on bermudagrass (setting [5]), in the experiment with bermudagrass (setting [6]), in the experiment on bermudagrass (setting [7]), in the experiment with bermudagrass (setting [1]) and in the experiment on bermudagrass (setting [2]) was 0 each time. The “Bermudagrass plant response rating” value in the experiment on bermudagrass (setting [3]) worked out at 0.

As to `O=C1NCC(c2cccc(OC(F)(F)F)c2)C1C(=O)Nc1ccccc1F` (stereo not drawn) [Compound 69], the “Bermudagrass plant response rating” value with bermudagrass (Preemergence, 31 g ai/ha, scale 0 to 100, 0 is no effect and 100 is complete control) came out at 35. In addition, the figures for the “Plant response rating, Bermudagrass” value in the experiment on bermudagrass (setting [1]) and with bermudagrass (setting [2]) were 35 and 50, respectively. Further, the “Plant response rating (scale of 0 to 100), Bermudagrass” value in the experiment on bermudagrass (Preemergence, 250 g ai/ha) was 55.

`CN1CC(c2ccc(F)c(F)c2)C(C(=O)Nc2cccc(F)c2F)C1=O` (stereo not drawn) [Compound 303]: the “Plant response rating, Sprangletop, Brdd.” value in the experiment on sprangletop, Brdd. (62 g ai/ha) stood at 70; in the experiment with sprangletop, Brdd. (125 g ai/ha), 80; in the experiment with sprangletop, Brdd. (250 g ai/ha), 85; in the experiment on sprangletop, Brdd. (500 g ai/ha), 90. Moreover, the “Plant response rating, Monochoria” value with monochoria (62 g ai/ha), in the experiment on monochoria (125 g ai/ha), with monochoria (250 g ai/ha) and in the experiment with monochoria (500 g ai/ha) was 100 in each case.
